# According to US20250163057A1, “DCN-1 MODULATING COMPOUNDS AND METHODS OF USE THEREOF” (Cellarity, Inc., priority 2023, published 2025):
# Where two headings read alike, the source gives them in different places.
# Columns and labels:
# [1] = tested on: Cullin-3 (CUL3) neddylation; assay: AlphaLISA assay for Cullin-3 (CUL3) neddylation in TF 1 cells; type: cell-based; settings: 3 hours treatment
# Outline: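 TF 1 cells in unsupplemented IMDM treated with compound concentrations for 3 h, then lysed. CUL3 neddylation detected by AlphaLISA (biotinylated anti-NEDD8, anti-CUL3 acceptor beads overnight, streptavidin donor beads 1 h); normalized to vehicle (0%) and 1 μM DI-1548 (100%), IC50 from Hill fits.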
# [2] = biological target: DCN1 (DCUND1) protein PONY domain (Homo sapiens (Human), UniProt Q96GG9); assay: TR-FRET assay, DCN1 binding with FAM-labeled probe
# Outline: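 First, the E. coli-derived PONY domain was biotinylated and paired with streptavidin Tb cryptate. Compounds in 0.1% DMSO were then added to DCN1 and FAM-probe (5 nM/20 nM, or 0.31 nM/900 nM total with 800 nM unlabelled) in TritonX, 200 mM NaCl buffer. Finally, TR-FRET ratios were recorded at 1, 5 and 24 hrs.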
# DCN1 protein = DCN1 protein (Homo sapiens (Human), UniProt Q96GG9); assay: Intact Protein MS Analysis with the RapidFire-TOF System (covalent adduct formation); type: binding; settings: MS Emax; 400 nM DCN1, 3 hours at room temperature
# Outline: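 Tag-cleaved human DCN1 (400 nM) expressed in E. coli, in 25 mM Tris-HCl, 200 mM NaCl, 1 mM DTT, was incubated with 11 compound concentrations for 3 h at room temperature and quenched with 0.2% formic acid. Intact-protein Q-TOF MS with deconvolution detected the compound adduct mass.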
# [3] = 24 hr after treatment with compound, read-out: TR FRET IC50 24 hr
# [4] = TR FRET IC50 1 hr (nM), 1 hr after treatment with compound
# [5] = read-out: TR FRET IC50 1 hr, 1 hr after treatment with compound
# Sequence of DCN1 protein (Q96GG9 whole entry): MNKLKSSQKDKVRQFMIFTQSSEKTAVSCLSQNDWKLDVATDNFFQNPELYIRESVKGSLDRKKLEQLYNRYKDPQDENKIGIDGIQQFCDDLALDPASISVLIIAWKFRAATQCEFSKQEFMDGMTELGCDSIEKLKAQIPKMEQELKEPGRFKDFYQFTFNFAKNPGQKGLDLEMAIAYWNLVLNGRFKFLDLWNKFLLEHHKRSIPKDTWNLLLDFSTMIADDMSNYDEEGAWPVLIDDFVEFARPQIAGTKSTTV
# Sequence of DCN1 (DCUND1) protein PONY domain (Q96GG9 60-248): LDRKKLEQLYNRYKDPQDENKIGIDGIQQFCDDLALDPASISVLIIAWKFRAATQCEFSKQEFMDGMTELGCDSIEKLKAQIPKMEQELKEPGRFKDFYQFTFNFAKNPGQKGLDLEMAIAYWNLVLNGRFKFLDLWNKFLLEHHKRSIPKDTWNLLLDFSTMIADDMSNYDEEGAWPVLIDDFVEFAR
SMILES,IC50 [1] [µM],"IC50 [2, 3] [nM]","IC50 [2, 4] [nM]",% Adduct Formation (DCN1 protein),IC50 ([1]; Homo sapiens) [µM],"IC50 [2, 5] [nM]","IC50 ([1]; Homo sapiens, TF-1, 3 h) [µM]"
CCN1C(=O)[C@@H](NC(=O)c2cccc(C(F)(F)F)c2)[C@@H](c2ccc(F)cc2)c2c(C(=O)N3CCOC[C@H]3C#N)nn(-c3ccccc3)c21 (mixture of isomers) [Compound I-295],≤ 0.1,≤ 200,1000 to 3000,+++ (MS Emax % adduct formation greater than 80.0 and less than or equal to 100.0),,,
CCN1C(=O)[C@@H](NC(=O)c2cccc3c2OCCC3)[C@@H](C2CC2)c2c(C(=O)N3[C@H](C#N)C[C@H]4C[C@H]43)nn(C3CCOCC3)c21 [Compound I-394],,≤ 200,,+++ (MS Emax % adduct formation greater than 80.0 and less than or equal to 100.0),≤ 0.1,≤ 200,
CCN1C(=O)[C@@H](NC(=O)c2cccc(C(F)(F)F)c2)[C@@H](c2ccc(F)cc2)c2c(C(=O)N(C)CC#N)nn(C3CCOCC3)c21 [Compound I-366],,≤ 200,,+++ (MS Emax % adduct formation greater than 80.0 and less than or equal to 100.0),,≤ 200,≤ 0.1
"CCN1C(=O)[C@@H](NC(=O)c2cccc(C(F)(F)F)c2)[C@@H](c2ccc(F)cc2)c2c(C(=O)N(C)[C@H](C)C#N)nn(-c3ccccc3)c21 (single isomer, unassigned) [Compound I-289, (4S,5S)—N—((R*)-1-cyanoethyl)-7-ethyl-4-(4-fluorophenyl)-N-methyl-6-oxo-1-phenyl-5-(3-(trifluoromethyl)benzamido)-4,5,6,7-tetrahydro-1H-pyrazolo[3,4-b]pyridine-3-carboxamide]",,≤ 200,≤ 200,+++ (MS Emax % adduct formation greater than 80.0 and less than or equal to 100.0),,,≤ 0.1
CCN1C(=O)[C@@H](NC(=O)c2cccc(C(F)(F)F)c2F)[C@@H](c2ccc(F)cc2)c2c(C(=O)N3CCC[C@H]3C#N)nn(C3CCOCC3)c21 [Compound I-333],,≤ 200,200 to 1000,+++ (MS Emax % adduct formation greater than 80.0 and less than or equal to 100.0),,,≤ 0.1
CCN1C(=O)[C@@H](NC(=O)c2cccc(C(F)(F)F)c2)[C@@H](c2ccc(F)cc2)c2c(C(=O)N(C)[C@@H](C#N)CCN3CCOCC3)nn(-c3ccccc3)c21 [Compound I-309],,≤ 200,,+ (MS Emax % adduct formation greater than or equal to 0.0 and less than or equal to 30.0),,≤ 200,≤ 0.1
CCN1C(=O)[C@@H](NC(=O)c2cccc(C(F)(F)F)c2)[C@@H](c2ccc(F)cc2)c2c(C(=O)N(CC#N)CCN3CCOCC3)nn(-c3ccccc3)c21 (racemic) [Compound I-320],,≤ 200,,+++ (MS Emax % adduct formation greater than 80.0 and less than or equal to 100.0),,≤ 200,≤ 0.1
CCN1C(=O)[C@@H](NC(=O)c2cccc(C(F)(F)F)c2)[C@@H](c2ccc(F)cc2)c2c(C(=O)N(C)[C@H](C#N)CCN3CC4CCC(C3)O4)nn(-c3ccccc3)c21 [Compound I-318],,≤ 200,1000 to 3000,+++ (MS Emax % adduct formation greater than 80.0 and less than or equal to 100.0),,,≤ 0.1
CCN1C(=O)[C@@H](NC(=O)c2cccc(C(F)(F)F)c2)[C@@H](c2ccc(F)cc2)c2c(C(=O)N(C)[C@H](C#N)CCN3CCC34COC4)nn(-c3ccccc3)c21 [Compound I-314],,≤ 200,,+++ (MS Emax % adduct formation greater than 80.0 and less than or equal to 100.0),,≤ 200,≤ 0.1
CCN(CC#N)C(=O)c1nn(-c2ccccc2)c2c1[C@H](c1ccc(F)cc1)[C@H](NC(=O)c1cccc(C(F)(F)F)c1)C(=O)N2CC (stereo in doubt) [Compound I-283],,≤ 200,,+++ (MS Emax % adduct formation greater than 80.0 and less than or equal to 100.0),,≤ 200,≤ 0.1
CCN1C(=O)[C@@H](NC(=O)c2cccc(OC(F)(F)F)c2)[C@@H](C2CC2)c2c(C(=O)N3[C@H](C#N)C[C@H]4C[C@H]43)nn(C3CCOCC3)c21 [Compound I-396],,≤ 200,,+++ (MS Emax % adduct formation greater than 80.0 and less than or equal to 100.0),≤ 0.1,≤ 200,
CCN1C(=O)[C@@H](NC(=O)c2cccc(C(F)(F)F)c2)[C@@H](C2CCCC2)c2c(C(=O)N3[C@H](C#N)C[C@H]4C[C@H]43)nn(C3CCOCC3)c21 [Compound I-376],,≤ 200,,+++ (MS Emax % adduct formation greater than 80.0 and less than or equal to 100.0),,≤ 200,≤ 0.1
CCN1C(=O)[C@@H](NC(=O)c2cccc(C(F)(F)F)c2)[C@@H](C2CC2)c2c(C(=O)N(C)C(C)C#N)nn(C3CCOCC3)c21 (mixture of isomers) [Compound I-349],,≤ 200,,+++ (MS Emax % adduct formation greater than 80.0 and less than or equal to 100.0),,≤ 200,≤ 0.1
CCN1C(=O)[C@@H](NC(=O)c2cccc(C(F)(F)F)c2)[C@@H](c2ccc(F)cc2)c2c(C(=O)N(CC#N)CCN3CC4CCC(C3)O4)nn(-c3ccccc3)c21 (mixture of isomers) [Compound I-324],,≤ 200,200 to 1000,+++ (MS Emax % adduct formation greater than 80.0 and less than or equal to 100.0),,,≤ 0.1
CCN1C(=O)[C@@H](NC(=O)c2cccc(C(F)(F)F)c2)[C@@H](C2CC2)c2c(C(=O)N(CC#N)CC#N)nn(C3CCOCC3)c21 [Compound I-373],,≤ 200,,++ (MS Emax % adduct formation greater than 30.0 and less than or equal to 80.0),,≤ 200,≤ 0.1
C=C(CN1CC2(COC2)C1)C(=O)NCc1nn(-c2ccccc2)c2c1[C@H](c1ccc(F)cc1)[C@@H](NC(=O)c1cccc(C(F)(F)F)c1)C(=O)N2CC [Compound I-149],,≤ 200,,+++ (MS Emax % adduct formation greater than 80.0 and less than or equal to 100.0),,≤ 200,≤ 0.1
CCN1C(=O)[C@@H](NC(=O)c2cccc(C(F)(F)F)c2)[C@@H](c2ccc(F)cc2)c2c(C(=O)N3CCC[C@H]3C#N)nn(-c3cccc(OCCN4CC5(COC5)C4)c3)c21 [Compound I-342],,≤ 200,,+++ (MS Emax % adduct formation greater than 80.0 and less than or equal to 100.0),,≤ 200,≤ 0.1
CCCn1nc(C(=O)N2[C@H](C#N)C[C@H]3C[C@H]32)c2c1N(CC)C(=O)[C@@H](NC(=O)c1cccc(C(F)(F)F)c1)[C@H]2C1CC1 [Compound I-328],,≤ 200,,+++ (MS Emax % adduct formation greater than 80.0 and less than or equal to 100.0),,≤ 200,≤ 0.1
CCN1C(=O)[C@@H](NC(=O)c2cccc(C(F)(F)F)c2)[C@@H](c2ccc(F)cc2)c2c(C(=O)N3CCC[C@H]3C#N)nn(-c3cccc(OCCCN(C)C4COC4)c3)c21 [Compound I-335],,≤ 200,1000 to 3000,+++ (MS Emax % adduct formation greater than 80.0 and less than or equal to 100.0),,,≤ 0.1
CCN1C(=O)[C@@H](NC(=O)c2cccc(C(F)(F)F)c2)[C@@H](c2ccc(F)cc2)c2c(C(=O)N3CCC[C@H]3C#N)nn(-c3cccc(OCCN(C)C4COC4)c3)c21 [Compound I-347],,≤ 200,200 to 1000,+++ (MS Emax % adduct formation greater than 80.0 and less than or equal to 100.0),,,≤ 0.1
CCN1C(=O)[C@@H](NC(=O)c2cccc(C(F)(F)F)c2)[C@@H](c2ccc(F)cc2)c2c(C(=O)N(C)CC#N)nn(-c3ccccc3)c21 (racemic) [Compound I-282],≤ 0.1,≤ 200,,+++ (MS Emax % adduct formation greater than 80.0 and less than or equal to 100.0),,≤ 200,
C=C(CN1CCN(C2COC2)CC1)C(=O)NCc1nn(-c2ccccc2)c2c1[C@H](c1ccc(F)cc1)[C@H](NC(=O)c1cccc(C(F)(F)F)c1)C(=O)N2CC (racemic) [Compound I-57],,≤ 200,,++ (MS Emax % adduct formation greater than 30.0 and less than or equal to 80.0),,≤ 200,≤ 0.1
CCN1C(=O)[C@@H](NC(=O)c2cccc(C(F)(F)F)n2)[C@@H](c2ccc(F)cc2)c2c(C(=O)N3CCC[C@H]3C#N)nn(C3CCOCC3)c21 [Compound I-332],,≤ 200,200 to 1000,+++ (MS Emax % adduct formation greater than 80.0 and less than or equal to 100.0),,,≤ 0.1
